Measurements reported in patent US8993574B2, “Pyrrole antifungal agents” (F2G Ltd, priority 2008, dated 2015).
≈ marks a conversion by molar mass, not a printed value.

How the values were obtained:
Assay type in all cases: cell-based
[1] = system: Aspergillus fumigatus AF293; experiment: MIC, YAG medium; details: 24 h at 35° C, MIC banded into grades; for MIC: Aspergillus fumigatus, read-out: MIC grade, A. fumigatus
Method in brief: (§1)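 DMSO stocks diluted in water as doubling series; spore suspension in YAG (glucose, NH4Cl, yeast extract) added to give 1−2×10^4 cfu/mL. 35° C, 24 h. Growth by OD485; MIC at >70% inhibition, mg/L.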

[2] = system: Aspergillus terreus AT49; experiment: MIC, YAG medium; details: 24 h at 35° C, MIC banded into grades; for MIC: Aspergillus terreus, read-out: MIC grade, A. terreus 49
Method in brief: as §1

[3] = system: Aspergillus fumigatus AF210; experiment: MIC, YAG medium; details: 24 h at 35° C, MIC banded into grades; for MIC: Aspergillus fumigatus, read-out: MIC grade, A. fumigatus 210
Method in brief: as §1

[4] = system: Aspergillus flavus; experiment: MIC, YAG medium; details: 24 h at 35° C, MIC banded into grades; for MIC: Aspergillus flavus, 24 h, read-out: MIC grade, A. flavus
Method in brief: as §1

[5] = system: Aspergillus niger; experiment: MIC, YAG medium; details: 24 h at 35° C, MIC banded into grades; for MIC: Aspergillus niger, read-out: MIC grade, A. niger
Method in brief: as §1

[6] = system: Aspergillus terreus AT4; experiment: MIC, YAG medium; details: 24 h at 35° C, MIC banded into grades; for MIC: Aspergillus terreus, read-out: MIC grade, A. terreus
Method in brief: as §1

[7] = system: Candida parapsilosis; experiment: MIC, RPMI medium; details: 24-48 h at 35° C., >80% growth inhibition, banded into grades; for MIC: Lodderomyces parapsilosis
Method in brief: (§2)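 RPMI (2% glucose, 0.135 M MOPS, pH 7.0) microdilution; drug 50-0.05 mg/L doubling series; inoculum 1−2×10^4 cfu/mL; 24-48 h, 35° C; OD485; MIC = lowest conc. with >80% inhibition vs drug-free control.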

[8] = system: Aspergillus fumigatus AF293; experiment: MIC, RPMI medium; details: for MIC: Aspergillus fumigatus, AF293, MIC banded into grades, read-out: MIC grade, A. fumigatus; for MIC grade, A. fumigatus: MIC banded into grades
Method in brief: as §2

[9] = system: Candida albicans; experiment: MIC, RPMI medium; details: 24-48 h at 35° C., >80% growth inhibition, banded into grades; for MIC: Candida albicans
Method in brief: as §2

[10] = system: Aspergillus terreus AT49; experiment: MIC, RPMI medium; details: for MIC: Aspergillus terreus, AT49, MIC banded into grades, read-out: MIC grade, A. terreus 49; for MIC grade, A. terreus 49: MIC banded into grades
Method in brief: as §2

[11] = system: Candida tropicalis; experiment: MIC, RPMI medium; details: 24-48 h at 35° C., >80% growth inhibition, banded into grades; for MIC: Candida tropicalis
Method in brief: as §2

[12] = system: Candida krusei; experiment: MIC, RPMI medium; details: 24-48 h at 35° C., >80% growth inhibition, banded into grades; for MIC: Pichia kudriavzevii
Method in brief: as §2

[13] = system: Aspergillus fumigatus AF210; experiment: MIC, RPMI medium; details: for MIC: Aspergillus fumigatus, AF210, MIC banded into grades, read-out: MIC grade, A. fumigatus 210; for MIC grade, A. fumigatus 210: MIC banded into grades
Method in brief: as §2

[14] = system: Aspergillus flavus; experiment: MIC, RPMI medium; details: MIC banded into grades; for MIC: Aspergillus flavus, read-out: MIC grade, A. flavus
Method in brief: as §2

[15] = system: Aspergillus niger; experiment: MIC, RPMI medium; details: MIC banded into grades; for MIC: Aspergillus niger, read-out: MIC grade, A. niger
Method in brief: as §2

[16] = system: Candida glabrata; experiment: MIC, RPMI medium; details: 24-48 h at 35° C., >80% growth inhibition, banded into grades; for MIC: Nakaseomyces glabratus
Method in brief: as §2

[17] = system: Aspergillus terreus AT4; experiment: MIC, RPMI medium; details: for MIC: Aspergillus terreus, AT4, MIC banded into grades, read-out: MIC grade, A. terreus; for MIC grade, A. terreus: MIC banded into grades
Method in brief: as §2

MIC [1] | MIC [2] | MIC [3] | MIC [4] | MIC [5] | MIC [6] | MIC [7] | MIC [8] | MIC [9] | MIC [10] | MIC [11] | MIC [12] | MIC [13] | MIC [14] | MIC [15] | MIC [16] | MIC [17] | SMILES | MIC grade, A. fumigatus [1] | MIC grade, A. terreus 49 [2] | MIC grade, A. fumigatus 210 [3] | further results
< 1 µg/mL | < 1 µg/mL | < 1 µg/mL | 1 to 10 µg/mL (≈ 1.75 to 17.5 µM) | 1 to 10 µg/mL (≈ 1.75 to 17.5 µM) | 1 to 10 µg/mL (≈ 1.75 to 17.5 µM) | 1 to 10 µg/mL (≈ 1.75 to 17.5 µM) | 1 to 10 µg/mL (≈ 1.75 to 17.5 µM) | 1 to 10 µg/mL (≈ 1.75 to 17.5 µM) | 1 to 10 µg/mL (≈ 1.75 to 17.5 µM) | 1 to 10 µg/mL (≈ 1.75 to 17.5 µM) | < 1 µg/mL | 1 to 10 µg/mL (≈ 1.75 to 17.5 µM) | > 10 µg/mL | 1 to 10 µg/mL (≈ 1.75 to 17.5 µM) | < 1 µg/mL | 1 to 10 µg/mL (≈ 1.75 to 17.5 µM) | COCCn1ccc(-c2ccccc2Cl)c1C(=O)C(=O)Nc1ccc(N2CCN(c3cc(C)cc(C)n3)CC2)cc1 [Example 57, 2-[3-(2-Chloro-phenyl)-1-(2-methoxy-ethyl)-1H-pyrrol-2-yl]-N-{4-[4-(4,6-dimethyl-pyridin-2-yl)-piperazin-1-yl]-phenyl}-2-oxo-acetamide] | – | – | – | –
1 to 10 µg/mL (≈ 1.82 to 18.2 µM) | > 10 µg/mL | 1 to 10 µg/mL (≈ 1.82 to 18.2 µM) | > 10 µg/mL | > 10 µg/mL | > 10 µg/mL | < 1 µg/mL | > 10 µg/mL | < 1 µg/mL | > 10 µg/mL | < 1 µg/mL | < 1 µg/mL | 1 to 10 µg/mL (≈ 1.82 to 18.2 µM) | > 10 µg/mL | > 10 µg/mL | < 1 µg/mL | > 10 µg/mL | CNC(=O)Cn1ccc(-c2ccccc2)c1C(=O)C(=O)Nc1ccc(N2CCN(c3cc(C)cc(C)n3)CC2)cc1 [Example 76, N-{4-[4-(4,6-Dimethyl-pyridin-2-yl)-piperazin-1-yl]-phenyl}-2-(1-methylcarbamoylmethyl-3-phenyl-1H-pyrrol-2-yl)-2-oxo-acetamide] | – | – | – | –
– | – | – | – | – | – | – | – | – | – | – | – | – | – | – | – | – | COC(=O)Cn1ccc(-c2ccccc2)c1C(=O)C(=O)Nc1ccc(N2CCN(c3cc(C)cc(C)n3)CC2)cc1 [Example 74, (2-{4-[4-(4,6-Dimethyl-pyridin-2-yl)-piperazin-1-yl]-phenylaminooxalyl}-3-phenylpyrrol-1-yl)-acetic acid methyl ester] | 3 (A grade of 3 represents an MIC of less than 1 mg/L) | 2 (A grade of 2 represents an MIC of from 1 to 10 mg/L) | 3 (A grade of 3 represents an MIC of less than 1 mg/L) | MIC grade, A. flavus [4]: 1 (a grade of 1 represents an MIC of greater than 10 mg/L); MIC grade, A. niger [5]: 3 (A grade of 3 represents an MIC of less than 1 mg/L); MIC grade, A. terreus [6]: 2 (A grade of 2 represents an MIC of from 1 to 10 mg/L); Candida MIC, C. parapsilosis [7]: 3 (A grade of 3 represents an MIC of less than 1 mg/L); MIC grade, A. fumigatus [8]: 3 (A grade of 3 represents an MIC of less than 1 mg/L); Candida MIC, C. albicans [9]: 2 (A grade of 2 represents an MIC of from 1 to 10 mg/L); MIC grade, A. terreus 49 [10]: 2 (A grade of 2 represents an MIC of from 1 to 10 mg/L); Candida MIC, C. tropicalis [11]: 3 (A grade of 3 represents an MIC of less than 1 mg/L); Candida MIC, C. krusei [12]: 2 (A grade of 2 represents an MIC of from 1 to 10 mg/L); MIC grade, A. fumigatus 210 [13]: 3 (A grade of 3 represents an MIC of less than 1 mg/L); MIC grade, A. flavus [14]: 1 (a grade of 1 represents an MIC of greater than 10 mg/L); MIC grade, A. niger [15]: 3 (A grade of 3 represents an MIC of less than 1 mg/L); Candida MIC, C. glabrata [16]: 3 (A grade of 3 represents an MIC of less than 1 mg/L); MIC grade, A. terreus [17]: 2 (A grade of 2 represents an MIC of from 1 to 10 mg/L)
– | – | – | – | – | – | – | – | – | – | – | – | – | – | – | – | – | COC(=O)Cn1c(C)cc(-c2ccccc2)c1C(=O)C(=O)Nc1ccc(N2CCN(c3cc(C)cc(C)n3)CC2)cc1 [Example 52, (2-{4-[4-(4,6-Dimethyl-pyridin-2-yl)-piperazin-1-yl]-phenylaminooxalyl}-5-methyl-3-phenyl-pyrrol-1-yl)-acetic acid methyl ester] | 3 (A grade of 3 represents an MIC of less than 1 mg/L) | 3 (A grade of 3 represents an MIC of less than 1 mg/L) | 3 (A grade of 3 represents an MIC of less than 1 mg/L) | MIC grade, A. flavus [4]: 3 (A grade of 3 represents an MIC of less than 1 mg/L); MIC grade, A. niger [5]: 3 (A grade of 3 represents an MIC of less than 1 mg/L); MIC grade, A. terreus [6]: 3 (A grade of 3 represents an MIC of less than 1 mg/L); Candida MIC, C. parapsilosis [7]: 2 (A grade of 2 represents an MIC of from 1 to 10 mg/L); MIC grade, A. fumigatus [8]: 3 (A grade of 3 represents an MIC of less than 1 mg/L); Candida MIC, C. albicans [9]: 2 (A grade of 2 represents an MIC of from 1 to 10 mg/L); MIC grade, A. terreus 49 [10]: 3 (A grade of 3 represents an MIC of less than 1 mg/L); Candida MIC, C. tropicalis [11]: 2 (A grade of 2 represents an MIC of from 1 to 10 mg/L); Candida MIC, C. krusei [12]: 3 (A grade of 3 represents an MIC of less than 1 mg/L); MIC grade, A. fumigatus 210 [13]: 3 (A grade of 3 represents an MIC of less than 1 mg/L); MIC grade, A. flavus [14]: 2 (A grade of 2 represents an MIC of from 1 to 10 mg/L); MIC grade, A. niger [15]: 3 (A grade of 3 represents an MIC of less than 1 mg/L); Candida MIC, C. glabrata [16]: 3 (A grade of 3 represents an MIC of less than 1 mg/L); MIC grade, A. terreus [17]: 3 (A grade of 3 represents an MIC of less than 1 mg/L)
